What all share (type): biochemical
One experiment addresses T1, recombinant human VAP-1 (Homo sapiens, UniProt Q16853).
T1 construct: purchased R&D systems
T1 sequence (Q16853 1-763): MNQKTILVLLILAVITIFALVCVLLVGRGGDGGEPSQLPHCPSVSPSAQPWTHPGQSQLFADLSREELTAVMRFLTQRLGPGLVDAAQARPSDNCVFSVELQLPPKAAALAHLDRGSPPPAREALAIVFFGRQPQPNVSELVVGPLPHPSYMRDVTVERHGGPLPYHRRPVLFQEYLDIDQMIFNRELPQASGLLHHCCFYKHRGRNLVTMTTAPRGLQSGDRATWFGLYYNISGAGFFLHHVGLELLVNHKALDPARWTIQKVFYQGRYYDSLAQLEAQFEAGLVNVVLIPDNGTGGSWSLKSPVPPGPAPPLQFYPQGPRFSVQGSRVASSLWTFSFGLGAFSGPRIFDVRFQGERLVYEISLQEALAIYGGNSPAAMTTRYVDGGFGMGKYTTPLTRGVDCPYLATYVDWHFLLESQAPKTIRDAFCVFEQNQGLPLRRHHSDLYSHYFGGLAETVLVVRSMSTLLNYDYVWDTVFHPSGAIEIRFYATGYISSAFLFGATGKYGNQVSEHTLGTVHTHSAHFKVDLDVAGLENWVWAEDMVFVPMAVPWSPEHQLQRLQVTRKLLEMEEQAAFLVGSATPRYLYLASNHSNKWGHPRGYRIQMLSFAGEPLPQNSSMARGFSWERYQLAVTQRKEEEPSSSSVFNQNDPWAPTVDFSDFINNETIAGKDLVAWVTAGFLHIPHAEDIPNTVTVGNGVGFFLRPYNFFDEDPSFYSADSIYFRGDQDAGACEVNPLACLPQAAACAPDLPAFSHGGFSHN
As to the kind of experiment: Amplex Red HRP-coupled amine oxidase activity evaluation, recombinant human VAP-1. The conditions noted are these: substrate 1 mM benzylamine; 30 min preincubation at 37° C.; read-out: Inhibitory Activity (IC50, nM) human VAP-1. As for the experimental part:
(§1) The compounds according to the present technology were evaluated in terms of activity on recombinant human VAP-1 (R&D systems) by measuring the level of hydrogen peroxide in horseradish peroxidase (HRP)-coupled reaction using Amplex Red Hydrogen Peroxide Assay Kit (Molecular Probes, Invitrogen, USA). The experiment was carried out at room temperature using benzylamine as a substrate. In the HRP-coupled reaction, hydrogen peroxide oxidation of 10-acetyl-3,7-dihydroxyphenoxazine (Amplex Red reagent) produces resorufin, which is a highly fluorescent compound. Briefly, the test compound was dissolved in dimethyl sulfoxide (DMSO) at a concentration of 20 mM. The dose-response assessment was made by 1:3 serial dilution in DMSO, thereby creating an 8-point curve. The concentration of the upper part was controlled according to the efficacy of the compounds, followed by dilution with a reaction buffer solution to obtain a final DMSO concentration of less than 1%. To each well of a 96 black well plate, human VAP-1 purified in 50 mM sodium phosphate buffer solution (pH7.4) was added. The test compounds dissolved in DMSO were incubated with the human VAP-1 enzymes at 37° C. for 30 minutes. After 30-minute incubation, each well was added with a reaction mixture containing 200 uM Amplex Red reagent prepared from 50 mM sodium phosphate buffer solution (pH 7.4), 1 mM benzylamine, and 1 U/mL HRP. Fluorescence intensity was measured at several time points during 1-2 hours using a microplate reader (Flexstation3, Molecular Devices) under the wavelength condition exciting at 544 nm and reading the emission at 590 nm. The inhibitory effect of the compounds was measured as a decrease (%) in the signal rate as compared to the control group without any inhibitor (only diluted DMSO). Data was fixed to a logistic model with four variables and IC50 value was calculated using GraphPad Prism program.

The target in experiment [1] is T2, recombinant human MAO-B (monoamine oxidase-B) (Homo sapiens, UniProt P27338).
T2 construct: purchased Sigma-Aldrich
T2 sequence (P27338 1-520): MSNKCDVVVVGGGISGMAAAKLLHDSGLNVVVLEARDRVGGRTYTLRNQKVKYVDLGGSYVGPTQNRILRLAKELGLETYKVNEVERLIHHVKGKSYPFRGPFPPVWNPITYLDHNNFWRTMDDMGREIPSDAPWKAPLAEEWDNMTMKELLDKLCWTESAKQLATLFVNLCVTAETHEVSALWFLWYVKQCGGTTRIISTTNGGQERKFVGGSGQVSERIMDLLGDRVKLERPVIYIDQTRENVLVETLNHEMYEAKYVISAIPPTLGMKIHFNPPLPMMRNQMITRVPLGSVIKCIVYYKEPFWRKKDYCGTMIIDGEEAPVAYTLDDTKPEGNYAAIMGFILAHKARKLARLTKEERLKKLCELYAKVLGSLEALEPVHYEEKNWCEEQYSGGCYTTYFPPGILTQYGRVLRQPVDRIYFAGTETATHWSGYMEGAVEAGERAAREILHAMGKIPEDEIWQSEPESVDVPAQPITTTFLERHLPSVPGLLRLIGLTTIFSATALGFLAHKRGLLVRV
As to the kind of experiment: Amplex Red HRP-coupled amine oxidase activity evaluation, recombinant human MAO-B. The following applies: substrate 1 mM benzylamine; read-out: Inhibitory Activity (IC50, nM) MAO-B. The procedure:
[The source words this procedure for another target and says it was used here with some conditions changed.] as §1

Experiment [2] deals with T3, recombinant human MAO-A (monoamine oxidase-A) (Homo sapiens, UniProt P21397).
T3 construct: purchased Sigma-Aldrich
T3 sequence (P21397 1-527): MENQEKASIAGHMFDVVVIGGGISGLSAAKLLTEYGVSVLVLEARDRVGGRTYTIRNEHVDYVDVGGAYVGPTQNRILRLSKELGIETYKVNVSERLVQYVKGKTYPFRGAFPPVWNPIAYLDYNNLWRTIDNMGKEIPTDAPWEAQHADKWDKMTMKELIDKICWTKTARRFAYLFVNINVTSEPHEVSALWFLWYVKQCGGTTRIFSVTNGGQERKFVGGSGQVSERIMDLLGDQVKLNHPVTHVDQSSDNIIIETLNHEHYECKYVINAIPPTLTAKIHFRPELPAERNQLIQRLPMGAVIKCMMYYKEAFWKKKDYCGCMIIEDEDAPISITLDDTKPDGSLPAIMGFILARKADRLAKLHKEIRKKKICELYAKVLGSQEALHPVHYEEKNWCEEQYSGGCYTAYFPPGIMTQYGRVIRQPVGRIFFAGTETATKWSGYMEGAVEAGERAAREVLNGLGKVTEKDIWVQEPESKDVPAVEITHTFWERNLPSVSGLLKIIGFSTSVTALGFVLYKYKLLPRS
Briefly: Amplex Red HRP-coupled amine oxidase activity evaluation, recombinant human MAO-A. The following applies: substrate 0.5 mM tyramine; read-out: Inhibitory Activity (IC50, nM) MAO-A. As for the experimental part:
[The source words this procedure for another target and says it was used here with some conditions changed.] as §1

In experiment [3] the target is T4, recombinant human DAO (diamine oxidase) (Homo sapiens, UniProt P19801).
T4 construct: purchased R&D systems
T4 sequence (P19801 20-751): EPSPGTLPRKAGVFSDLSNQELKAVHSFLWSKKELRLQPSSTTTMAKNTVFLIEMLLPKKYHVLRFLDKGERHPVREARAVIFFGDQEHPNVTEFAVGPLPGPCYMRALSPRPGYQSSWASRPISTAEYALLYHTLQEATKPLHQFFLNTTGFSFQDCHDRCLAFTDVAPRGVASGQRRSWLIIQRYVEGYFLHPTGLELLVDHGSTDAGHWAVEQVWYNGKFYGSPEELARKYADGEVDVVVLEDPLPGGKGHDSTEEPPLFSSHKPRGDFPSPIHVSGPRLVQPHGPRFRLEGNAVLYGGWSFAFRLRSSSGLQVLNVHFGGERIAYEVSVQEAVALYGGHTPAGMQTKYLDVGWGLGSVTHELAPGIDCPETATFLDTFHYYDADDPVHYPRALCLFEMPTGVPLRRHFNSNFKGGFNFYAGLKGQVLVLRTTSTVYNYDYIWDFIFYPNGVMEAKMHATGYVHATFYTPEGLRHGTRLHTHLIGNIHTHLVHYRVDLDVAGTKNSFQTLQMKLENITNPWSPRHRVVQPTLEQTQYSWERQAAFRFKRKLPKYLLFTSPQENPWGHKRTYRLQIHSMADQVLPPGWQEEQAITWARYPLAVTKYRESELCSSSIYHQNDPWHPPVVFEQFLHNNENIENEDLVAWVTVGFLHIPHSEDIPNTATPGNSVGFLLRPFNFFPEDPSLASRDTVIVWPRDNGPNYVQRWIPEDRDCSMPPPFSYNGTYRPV
Briefly: Amplex Red HRP-coupled amine oxidase activity evaluation, recombinant human DAO. As for the experimental part:
[The source words this procedure for another target and says it was used here with some conditions changed.] as §1

[4] abbreviates: substrate 1 mM putrescine, read-out: Inhibitory Activity (IC50, nM) DAO.

The structures appear in SMILES notation. Counter-ions that a name gives are not always drawn. Like-named read-outs stand apart in the source and are kept apart here. Where only a bound is given, the exact number is not on record here.

Regarding `NCC(Cn1nnn(-c2cccc(-c3ccc(N4CCNCC4)cc3)c2)c1=O)=C(F)F` [Example 11, 1-[2-(aminomethyl)-3,3-difluoro-allyl]-4-[3-(4-piperazin-1-ylphenyl)phenyl]tetrazol-5-one trifluoroacetate], the IC50 – broadly, the concentration that gives 50% inhibition – on recombinant human VAP-1 is 7 nM; in experiment [1], over 100000 nM; in experiment [2], over 100000 nM; in experiment [3], 351 nM.

For the compound `CCn1cc(-c2cccc(-n3nnn(CC(CN)=C(F)F)c3=O)c2)ccc1=O` [Example 12, 5-[3-[4-[2-(aminomethyl)-3,3-difluoro-allyl]-5-oxo-tetrazol-1-yl]phenyl]-1-ethyl-pyridin-2-one di-trifluoroacetate], the concentration for half-maximal inhibition (IC50) was 0.9 nM at recombinant human VAP-1, over 100000 nM in experiment [1], over 100000 nM in experiment [2] and 10 nM in experiment [3].

Regarding `Cc1cc(-c2cccc(-n3nnn(CC(CN)=C(F)F)c3=O)c2)cc2c1NC(=O)CC2` [Example 13, 6-[3-[4-[2-(aminomethyl)-3,3-difluoro-allyl]-5-oxo-tetrazol-1-yl]phenyl]-8-methyl-3,4-dihydro-1H-quinolin-2-one trifluoroacetate], the IC50 on recombinant human VAP-1 is 0.7 nM; in experiment [1], 7800 nM; in experiment [2], over 100000 nM; in experiment [3] (setting [4]), 12 nM.

With `CN1C(=O)CCc2cc(-c3cccc(-n4nnn(CC(CN)=C(F)F)c4=O)c3)ccc21` [Example 14, 6-[3-[4-[2-(aminomethyl)-3,3-difluoro-allyl]-5-oxo-tetrazol-1-yl]phenyl]-1-methyl-3,4-dihydroquinolin-2-one trifluoroacetate], the IC50 on recombinant human VAP-1 is 1.4 nM; in experiment [1], 2470 nM; in experiment [2] it was over 100000 nM; in experiment [3] it was 12 nM.

Turning to `CCn1cc(-c2cccc(-n3nnn(CC(CN)=C(F)F)c3=O)c2)cn1` [Example 15, 1-[2-(aminomethyl)-3,3-difluoro-allyl]-4-[3-(1-ethylpyrazol-4-yl)phenyl]tetrazol-5-one trifluoroacetate], the IC50 is 1 nM at recombinant human VAP-1, 43500 nM in experiment [1], over 100000 nM in experiment [2] and 113 nM in experiment [3].

In the case of `CS(=O)(=O)c1ccc(-c2ccc(-n3nnn(CC(CN)=C(F)F)c3=O)cc2)cc1` [Example 16, 1-[2-(aminomethyl)-3,3-difluoro-allyl]-4-[4-(4-methylsulfonylphenyl)phenyl]tetrazol-5-one trifluoroacetate], the IC50 is 1.5 nM on recombinant human VAP-1, 260 nM in experiment [1], over 100000 nM in experiment [2] and 55 nM in experiment [3] (setting [4]).

For the compound `NCC(Cn1nnn(-c2ccc(-c3ccc(N4CCNCC4)cc3)cc2)c1=O)=C(F)F` [Example 17, 1-[2-(aminomethyl)-3,3-difluoro-allyl]-4-[4-(4-piperazin-1-ylphenyl)phenyl]tetrazol-5-one di-trifluoroacetate], the IC50 was 1.2 nM on recombinant human VAP-1, 3990 nM in experiment [1], over 100000 nM in experiment [2] and 65 nM in experiment [3] (setting [4]).

`CCn1cc(-c2ccc(-n3nnn(CC(CN)=C(F)F)c3=O)cc2)ccc1=O` [Example 18, 5-[4-[4-[2-(aminomethyl)-3,3-difluoro-allyl]-5-oxo-tetrazol-1-yl]phenyl]-1-ethyl-pyridin-2-one trifluoroacetate]: the concentration for half-maximal inhibition (IC50) at recombinant human VAP-1 is 0.2 nM; in experiment [1], 78 nM; in experiment [2], over 100000 nM; in experiment [3] (setting [4]) it was over 100000 nM.

Take `NCC(Cn1nnn(-c2ccc(-c3ccc4c(c3)OCO4)cc2)c1=O)=C(F)F` [Example 19, 1-[2-(aminomethyl)-3,3-difluoro-allyl]-4-[4-(1,3-benzodioxol-5-yl)phenyl]tetrazol-5-one trifluoroacetate]: the IC50 is 0.5 nM at recombinant human VAP-1, 8.8 nM in experiment [1], over 100000 nM in experiment [2] and 4890 nM in experiment [3] (setting [4]).

For the compound `Cc1cc(-c2ccc(-n3nnn(CC(CN)=C(F)F)c3=O)cc2)cc2c1NC(=O)CC2` [Example 20, 6-[4-[4-[2-(aminomethyl)-3,3-difluoro-allyl]-5-oxo-tetrazol-1-yl]phenyl]-8-methyl-3,4-dihydro-1H-quinolin-2-one trifluoroacetate], the IC50 on recombinant human VAP-1 is 0.4 nM; in experiment [1], 49 nM; in experiment [2], 82600 nM; in experiment [3] (setting [4]), over 100000 nM.

Consider `CN1C(=O)CCc2cc(-c3ccc(-n4nnn(CC(CN)=C(F)F)c4=O)cc3)ccc21` [Example 21, 6-[4-[4-[2-(aminomethyl)-3,3-difluoro-allyl]-5-oxo-tetrazol-1-yl]phenyl]-1-methyl-3,4-dihydroquinolin-2-one trifluoroacetate], for which the IC50 on recombinant human VAP-1 was 0.5 nM; in experiment [1], 43 nM; in experiment [2] it was over 100000 nM; in experiment [3] (setting [4]), 38 nM.

The values are drawn from patent publication US12110279B2, “Triazolones, tetrazolones, and imidazolones, or their salts, and pharmaceutical compositions comprising the same” (Yuhan Corporation, priority 2021, dated 2024).
